Columns and labels:
Assay type in all cases: in vivo
common lambsquaters = test: Foliage treatment test for upland field (Test Example 3): common lambsquaters; conditions: foliage treatment at 1.0-2.0 leaf stage of southern crabgrass, examined after 3 weeks
Text: (§1) Evaluation of the herbicidal effect is shown in the following six grades, by comparing the condition of untreated control and growth inhibition (%): • 0: 0%-less than 20% • 1: 20%-less than 40% • 2: 40%-less than 60% • 3: 60%-less than 80% • 4: 80%-less than 100% • 5: 100%.
(§2) Compost mixed soil was filled in 1/3,000 are pots, seeded with southern crabgrass, common lambsquaters, slender amaranth, common purslane, velvetleaf, wheat, corn and soybean. The seeds were covered up with the soil and cultured in a glasshouse kept at 25° C. on the average.
(§3) Wettable powders containing the object compounds (1) as identified in Table 1, which were formulated following Preparation Example 2, were diluted with water to the prescribed dose of the active ingredient, and uniformly sprayed onto the weeds at 1.0-2.0 leaf stage of the southern crabgrass at an application water of 15 liters per are.
(§4) After placing the test pots in a grasshouse kept at 25° C. on the average for 3 weeks, the herbicidal effect was examined.
(§5) Evaluation of the herbicidal effect was conducted in the similar manner to Test Example 1.

southern crabgrass = test: Foliage treatment test for upland field (Test Example 3): southern crabgrass; conditions: foliage treatment at 1.0-2.0 leaf stage of southern crabgrass, examined after 3 weeks
Text: as §1, §2, §3, §4, §5

soybean [1] = test: Foliage treatment test for upland field (Test Example 3): phytotoxicity to soybean; conditions: foliage treatment at 1.0-2.0 leaf stage of southern crabgrass, examined after 3 weeks
Protocol: (§6) Evaluation of phytotoxicity is shown in the following six grades, as compared with the condition of untreated control: • 0: normal growth • 1: little damaged • 2: low damaged • 3: medium damaged • 4: serious damaged • 5: complete killed.
as §2, §4

[2] = system: Japanese bulrush (Scirpus juncoides); test: Weed control test for paddy field (Test Example 1): Japanese bulrush; conditions: paddy pots, treated at 1.0 leaf stage of barnyard grass, examined after 3 weeks
Text: (§7) Paddy field soil was filled in 1/10,000 are pots, kneaded with adequate amounts of water and chemical fertilizer, seeded with barnyard grass (Echinochloa crusgalli), Monochoria (Monochoria vaginalis), Japanese bulrush (Scirpus juncoides) and flat sedge (Cyperus serotinus), and further transplanted with 2.0 leaf stage of rice plant. The pots were maintained under the water-filled condition to a depth of 3 cm.
(§8) Wettable powders containing the compounds (1) as identified in Table 1, which were formulated following Production Example 2, were diluted with adequate amount of water and applied to the pots dropwise with pippet at a prescribed dose of the active ingredients per are, at 1.0 leaf stage of the barnyard grass.
(§9) After placing the pots in a glasshouse which was controlled at an average temperature of 25° C. for 3 weeks, herbicidal effect was examined.
as §1

corn [3] = test: Foliage treatment test for upland field (Test Example 3): phytotoxicity to corn; conditions: foliage treatment at 1.0-2.0 leaf stage of southern crabgrass, examined after 3 weeks
Protocol: as §6, §2, §4

[4] = system: southern crabgrass (Digitaria ciliaris); test: Soil treatment test for upland field (Test Example 2): southern crabgrass; conditions: soil treatment before germination, examined after 3 weeks
Text: as §1
(§10) Upland field soil was filled in 1/3,000 are pots, seeded with southern crabgrass (Digitaria ciliaris), common lambsquaters (Chenopodium album), slender amaranth (Amaranthus viridis), common purslane (Portulaca oleracea), velvetleaf (Abutilon theophrasti), wheat, corn and soybean. The seeds were covered up with the soil.
(§11) Wettable powders containing the object compounds (1) as identified in Table 1, which were formulated following Preparation Example 2, were diluted with adequate amount of water to secure the prescribed dose of the active ingredient, and uniformly sprayed onto the surface soil layer after the seeding and before germination of the weeds, at an application water of 15 liters per are.
(§12) After placing the test pots in a glasshouse which was kept at an average temperature of 25° C. for 3 weeks, the herbicidal effect was examined.
(§13) Evaluations of the herbicidal effect and phytotoxicity were made in the manner similar to those in the above Test Example 1.

[5] = system: flat sedge (Cyperus serotinus); test: Weed control test for paddy field (Test Example 1): flat sedge; conditions: paddy pots, treated at 1.0 leaf stage of barnyard grass, examined after 3 weeks
Text: as §7, §8, §9, §1

slender amaranth = test: Foliage treatment test for upland field (Test Example 3): slender amaranth; conditions: foliage treatment at 1.0-2.0 leaf stage of southern crabgrass, examined after 3 weeks
Text: as §1, §2, §3, §4, §5

wheat [6] = test: Foliage treatment test for upland field (Test Example 3): phytotoxicity to wheat; conditions: foliage treatment at 1.0-2.0 leaf stage of southern crabgrass, examined after 3 weeks
Protocol: as §6, §2, §4

velvetleaf = test: Foliage treatment test for upland field (Test Example 3): velvetleaf; conditions: foliage treatment at 1.0-2.0 leaf stage of southern crabgrass, examined after 3 weeks
Text: as §1, §2, §3, §4, §5

corn [7] = test: Soil treatment test for upland field (Test Example 2): phytotoxicity to corn; conditions: soil treatment before germination, examined after 3 weeks
Text: as §6, §10, §12

wheat [8] = test: Soil treatment test for upland field (Test Example 2): phytotoxicity to wheat; conditions: soil treatment before germination, examined after 3 weeks
Text: as §6, §10, §12

[9] = system: slender amaranth (Amaranthus viridis); test: Soil treatment test for upland field (Test Example 2): slender amaranth; conditions: soil treatment before germination, examined after 3 weeks
Text: as §1, §10, §11, §12, §13

[10] = system: Monochoria (Monochoria vaginalis); test: Weed control test for paddy field (Test Example 1): Monochoria; conditions: paddy pots, treated at 1.0 leaf stage of barnyard grass, examined after 3 weeks
Text: as §7, §8, §9, §1

[11] = system: barnyard grass (Echinochloa crusgalli); test: Weed control test for paddy field (Test Example 1): barnyard grass; conditions: paddy pots, treated at 1.0 leaf stage of barnyard grass, examined after 3 weeks
Text: as §7, §8, §9, §1

[12] = system: common lambsquaters (Chenopodium album); test: Soil treatment test for upland field (Test Example 2): common lambsquaters; conditions: soil treatment before germination, examined after 3 weeks
Text: as §1, §10, §11, §12, §13

[13] = system: velvetleaf (Abutilon theophrasti); test: Soil treatment test for upland field (Test Example 2): velvetleaf; conditions: soil treatment before germination, examined after 3 weeks
Text: as §1, §10, §11, §12, §13

rice plant = test: Weed control test for paddy field (Test Example 1): phytotoxicity to rice plant
Text: as §7, §8, §9, §6

[14] = system: common purslane (Portulaca oleracea); test: Soil treatment test for upland field (Test Example 2): common purslane; conditions: soil treatment before germination, examined after 3 weeks
Text: as §1, §10, §11, §12, §13

common purslane = test: Foliage treatment test for upland field (Test Example 3): common purslane; conditions: foliage treatment at 1.0-2.0 leaf stage of southern crabgrass, examined after 3 weeks
Text: as §1, §2, §3, §4, §5

soybean [15] = test: Soil treatment test for upland field (Test Example 2): phytotoxicity to soybean; conditions: soil treatment before germination, examined after 3 weeks
Text: as §6, §10, §12

Q: For `COC/C(=C\c1cccc(C(F)(F)F)c1)c1nc2cc(Cl)ccc2o1` [Compound 3], which “Herbicidal Effect Common lambsquatters” value (common lambsquaters; dose 2.5 g ai/a) is on record?
A: Its value is 5 (100%).

Q: What about the “Herbicidal Effect Common lambsquatters” value (common lambsquaters; dose 5 g ai/a) of the same compound?
A: The value was 5 (100%).

Q: What about the “Herbicidal Effect southern crabgrass” value (southern crabgrass; dose 2.5 g ai/a) of the same compound?
A: The value was 5 (100%).

Q: And the “Herbicidal Effect southern crabgrass” value (southern crabgrass; dose 5 g ai/a)?
A: The value was 5 (100%).

Q: What about the Phytotoxicity soybean (soybean [1]; dose 2.5 g ai/a) of the same compound?
A: Its Phytotoxicity soybean is 1.

Q: What about the Phytotoxicity soybean (soybean [1]; dose 5 g ai/a) of the same compound?
A: The Phytotoxicity soybean was 2.

Q: What about the “Herbicidal Effect Japanese bulrush” value ([2]; dose 2.5 g ai/a) of the same compound?
A: The value was 4 (80%-less than 100%).

Q: What about the “Herbicidal Effect Japanese bulrush” value ([2]; dose 5 g ai/a) of the same compound?
A: The value was 5 (100%).

Q: What about the Phytotoxicity corn (corn [3]; dose 2.5 g ai/a) of the same compound?
A: The Phytotoxicity corn was 1.

Q: And the Phytotoxicity corn (corn [3]; dose 5 g ai/a)?
A: The Phytotoxicity corn was 1.

Q: What about the “Herbicidal Effect southern crabgrass” value ([4]; dose 2.5 g ai/a) of the same compound?
A: Its value is 5 (100%).

Q: And the “Herbicidal Effect southern crabgrass” value ([4]; dose 5 g ai/a)?
A: Its value is 5 (100%).

Q: What about the “Herbicidal Effect Flat sedge” value ([5]; dose 2.5 g ai/a) of the same compound?
A: The value was 3 (60%-less than 80%).

Q: What about the “Herbicidal Effect Flat sedge” value ([5]; dose 5 g ai/a) of the same compound?
A: The value was 5 (100%).

Q: And the “Herbicidal Effect slender amaranth” value (slender amaranth; dose 2.5 g ai/a)?
A: Its value is 5 (100%).

Q: And the “Herbicidal Effect slender amaranth” value (slender amaranth; dose 5 g ai/a)?
A: The value was 5 (100%).

Q: And the Phytotoxicity wheat (wheat [6]; dose 2.5 g ai/a)?
A: The Phytotoxicity wheat was 1.

Q: What about the Phytotoxicity wheat (wheat [6]; dose 5 g ai/a) of the same compound?
A: Its Phytotoxicity wheat is 1.

Q: What about the “Herbicidal Effect velvetleaf” value (velvetleaf; dose 2.5 g ai/a) of the same compound?
A: The value was 5 (100%).

Q: What about the “Herbicidal Effect velvetleaf” value (velvetleaf; dose 5 g ai/a) of the same compound?
A: Its value is 5 (100%).

Q: What about the Phytotoxicity corn (corn [7]; dose 2.5 g ai/a) of the same compound?
A: The Phytotoxicity corn was 0.

Q: What about the Phytotoxicity corn (corn [7]; dose 5 g ai/a) of the same compound?
A: Its Phytotoxicity corn is 1.

Q: And the Phytotoxicity wheat (wheat [8]; dose 2.5 g ai/a)?
A: Its Phytotoxicity wheat is 0.

Q: And the Phytotoxicity wheat (wheat [8]; dose 5 g ai/a)?
A: The Phytotoxicity wheat was 0.

Q: What about the “Herbicidal Effect slender amaranth” value ([9]; dose 2.5 g ai/a) of the same compound?
A: Its value is 5 (100%).

Q: What about the “Herbicidal Effect slender amaranth” value ([9]; dose 5 g ai/a) of the same compound?
A: Its value is 5 (100%).

Q: What about the “Herbicidal Effect Monochoria vaginalis” value ([10]; dose 2.5 g ai/a) of the same compound?
A: Its value is 5 (100%).

Q: What about the “Herbicidal Effect Monochoria vaginalis” value ([10]; dose 5 g ai/a) of the same compound?
A: Its value is 5 (100%).

Q: And the “Herbicidal Effect Barnyard grass” value ([11]; dose 2.5 g ai/a)?
A: The value was 5 (100%).

Q: And the “Herbicidal Effect Barnyard grass” value ([11]; dose 5 g ai/a)?
A: Its value is 5 (100%).

Q: And the “Herbicidal Effect common lambsquaters” value ([12]; dose 2.5 g ai/a)?
A: Its value is 5 (100%).

Q: And the “Herbicidal Effect common lambsquaters” value ([12]; dose 5 g ai/a)?
A: Its value is 5 (100%).

Q: What about the “Herbicidal Effect velvetleaf” value ([13]; dose 2.5 g ai/a) of the same compound?
A: Its value is 3 (60%-less than 80%).

Q: What about the “Herbicidal Effect velvetleaf” value ([13]; dose 5 g ai/a) of the same compound?
A: The value was 4 (80%-less than 100%).

Q: What about the “Phytotoxicity Rice plant” value (rice plant; in vivo) of the same compound?
A: Its value is 1.

Q: What about the “Herbicidal Effect common purslane” value ([14]; dose 2.5 g ai/a) of the same compound?
A: Its value is 5 (100%).

Q: And the “Herbicidal Effect common purslane” value ([14]; dose 5 g ai/a)?
A: The value was 5 (100%).

Q: What about the “Herbicidal Effect common purslane” value (common purslane; dose 2.5 g ai/a) of the same compound?
A: The value was 5 (100%).

Q: What about the “Herbicidal Effect common purslane” value (common purslane; dose 5 g ai/a) of the same compound?
A: Its value is 5 (100%).

Q: What about the Phytotoxicity soybean (soybean [15]; dose 2.5 g ai/a) of the same compound?
A: Its Phytotoxicity soybean is 0.

Q: And the Phytotoxicity soybean (soybean [15]; dose 5 g ai/a)?
A: Its Phytotoxicity soybean is 0.

Q: What does the source list for `CSCC(=Cc1cccc(C(F)(F)F)c1)c1nc2cc(Cl)ccc2o1` [Compound 30]?
A: Herbicidal Effect Japanese bulrush ([2]; dose 2.5 g ai/a): 4 (80%-less than 100%); Herbicidal Effect Japanese bulrush ([2]; dose 5 g ai/a): 5 (100%); Herbicidal Effect southern crabgrass ([4]; dose 2.5 g ai/a): 3 (60%-less than 80%); Herbicidal Effect southern crabgrass ([4]; dose 5 g ai/a): 5 (100%); Herbicidal Effect Flat sedge ([5]; dose 2.5 g ai/a): 3 (60%-less than 80%); Herbicidal Effect Flat sedge ([5]; dose 5 g ai/a): 5 (100%); Phytotoxicity corn (corn [7]; dose 2.5 g ai/a): 0; Phytotoxicity corn (corn [7]; dose 5 g ai/a): 0; Phytotoxicity wheat (wheat [8]; dose 2.5 g ai/a): 0; Phytotoxicity wheat (wheat [8]; dose 5 g ai/a): 1; Herbicidal Effect slender amaranth ([9]; dose 2.5 g ai/a): 5 (100%); Herbicidal Effect slender amaranth ([9]; dose 5 g ai/a): 5 (100%); Herbicidal Effect Monochoria vaginalis ([10]; dose 2.5 g ai/a): 5 (100%); Herbicidal Effect Monochoria vaginalis ([10]; dose 5 g ai/a): 5 (100%); Herbicidal Effect Barnyard grass ([11]; dose 2.5 g ai/a): 4 (80%-less than 100%); Herbicidal Effect Barnyard grass ([11]; dose 5 g ai/a): 5 (100%); Herbicidal Effect common lambsquaters ([12]; dose 2.5 g ai/a): 4 (80%-less than 100%); Herbicidal Effect common lambsquaters ([12]; dose 5 g ai/a): 4 (80%-less than 100%); Herbicidal Effect velvetleaf ([13]; dose 2.5 g ai/a): 2 (40%-less than 60%); Herbicidal Effect velvetleaf ([13]; dose 5 g ai/a): 2 (40%-less than 60%); Phytotoxicity Rice plant (rice plant; dose 2.5 g ai/a, paddy pots, treated at 1.0 leaf stage of barnyard grass, examined after 3 weeks): 0; Phytotoxicity Rice plant (rice plant; dose 5 g ai/a, paddy pots, treated at 1.0 leaf stage of barnyard grass, examined after 3 weeks): 0; Herbicidal Effect common purslane ([14]; dose 2.5 g ai/a): 5 (100%); Herbicidal Effect common purslane ([14]; dose 5 g ai/a): 5 (100%); Phytotoxicity soybean (soybean [15]; dose 2.5 g ai/a): 0; Phytotoxicity soybean (soybean [15]; dose 5 g ai/a): 0
